# Experimental data from patent US11400019B2, “Sustained release drug delivery systems with reduced impurities and related methods” (DURECT CORPORATION, priority 2020, dated 2022).
# Where a name gives a salt, the structure may show the parent alone. Read-outs that look alike come from different tables or passages of the source.
# What was measured:
# [1] = Example 13 trial: total and free bupivacaine plasma pharmacokinetics; conditions: human, in vivo
# Procedure: Additionally, alpha 1 acid glycoprotein (AAG) plasma concentrations were measured in these two groups for correlation with free bupivacaine concentrations.
# Using non-compartmental methods the following PK parameters were calculated from the plasma concentrations of each compound: area under the plasma concentration vs. time curve until the last measured concentration (AUCt), area under the plasma concentration vs. time curve extrapolated until infinity (AUCinf), the maximum concentration (Cmax), the time of its occurrence (tmax) and the apparent terminal elimination half-life (t1/2). […] The average […] of bupivacaine was approximately […]; free bupivacaine plasma concentrations generally paralleled those of total bupivacaine. There was a large interindividual variability of Cmax of both total and free bupivacaine. […] Note: Table 13.5 presents Geometric mean, ±68th percentile for Cmax rather than absolute min, max.
# [2] = system: patients undergoing general surgical procedures; assay: Example 17 trial: safety including Holter monitoring; type: in vivo, human; conditions: Safety Population
# Source text: Patient safety was carefully monitored throughout the trial with traditional assessments of AEs, vital signs, routine laboratory testing, and Holter monitoring (i.e., continuous recording of electrocardiogram) for 3 days after dosing. Special attention was given to cardiovascular and neurological AE, as bupivacaine toxic effects are manifest in those two body systems. In addition, special assessments were done to monitor surgical wound condition and healing over the 30 days of the trial.
# [3] = Example 17 trial: plasma total bupivacaine pharmacokinetics; type: in vivo; conditions: human
# Procedure: Plasma PK samples were analyzed for determination of total bupivacaine concentration only and none of the samples were analyzed for determination of free drug concentration.
# [4] = system: patients undergoing laparotomy, laparoscopic cholecystectomy or laparoscopically-assisted colectomy; assay: Example 17 phase 3 trial: pain intensity and opioid use in general surgical procedures; type: in vivo, human; conditions: for Total Morphine-equivalent Opioid Medication Use, MEDD 0-72 hours, Median (Q1, Q3) / Repeated Measures Pain Intensity on Movement, All Timepoints 0-72 hr, LS Mean (SE): ITT; for Pain Intensity on Movement AUC 0-24 hours, LS Mean (SE) / Pain Intensity on Movement AUC 0-48 hours, LS Mean (SE) / Pain Intensity on Movement AUC 0-72 hours, LS Mean (SE) / Pain Intensity on Movement AUC 24-48 hours, LS Mean (SE) / Pain Intensity on Movement AUC 48-72 hours, LS Mean (SE): Log Pad and Opioid Pain Scores; for Repeated Measures Pain Intensity on Movement, All Timepoints 0-72 hr, LS Mean (SE): LogPad Scores Only
# [5] = system: subjects undergoing elective outpatient laparoscopic cholecystectomy; assay: Example 16 trial: pain intensity on movement after laparoscopic cholecystectomy; type: in vivo, human; conditions: Part 2 (N = 148 per group)
# Procedure: Part 1: Pain intensity on movement measured at scheduled time points from 0 to 72 hours following test drug administration, adjusted for prior rescue medication use and analyzed by a mixed effect ANOVA model of repeated measures (MMRM).
# Part 2: Pain intensity on movement measured at scheduled time points from 0 to 48 hours following test drug administration, adjusted for prior rescue medication use and analyzed by a mixed effect ANOVA model of repeated measures (MMRM).
# [6] = system: patients undergoing elective arthroscopic shoulder surgery; assay: Example 13 trial: safety; type: in vivo, human; conditions: safety population
# Source text: Pharmacokinetic/pharmacodynamic (PK/PD) relationships were to be assessed as part of central nervous system (CNS) toxicity monitoring and cardiac monitoring. For patients not selected for PK-profiling, if a cardiac or CNS event occurred that met the criteria for a serious adverse event (SAE) or a severe non-SAE, a blood sample for PK analysis was to be taken as close to the event as possible.
# The incidence of adverse events (AEs); the incidence of bupivacaine-related CNS side effects; clinical laboratory tests; vital signs; 12-lead ECGs; and physical examinations.
# Evaluation by the investigator of wound healing and tissue conditions at the surgical wound on Days 7 and 14, and at the 6-month follow-up visit. An MRI of the shoulder as well as a functionality assessment of the shoulder using the Constant-Murley score were to be performed at the 6-month follow-up visit.
# [7] = system: subjects undergoing elective outpatient laparoscopic cholecystectomy; assay: Example 16 trial: safety; type: in vivo
# Source text: The trial included: 1) a randomized, parallel-group, double-blind, placebo-controlled study (Part 1) and a randomized, parallel-group, double-blind, bupivacaine HCl active-controlled study (Part 2). The trial evaluated the efficacy and safety of Formulation A (bupivacaine, benzyl alcohol, sucrose acetate isobutyrate) as a delivery system in subjects undergoing elective outpatient laparoscopic cholecystectomy.
# There were no fatalities in this trial. […]
# [8] = Cohort 2 (Laparoscopic Cholecystectomy)
compound,measurement,setting,value
"CCCCN1CCCCC1C(=O)Nc1c(C)cccc1C (stereo not drawn) [bupivacaine HCl, bupivacaine hydrochloride]",Tmax,[1],1.03 h
same,"t1/2, mean",[1],6.65 h
same,tmax median,[1],1.03 h
same,half-life,"[1]; t1/2, mean",5.93 h
same,At Least One Cardiovascular TEAE,[2]; Cohort 1,7 (39%)
same,At Least One Neurological TEAE,[2]; Cohort 1,4 (22%)
same,At Least One Non-Opioid TEAE,[2]; Cohort 1,17 (94%)
same,At Least One Serious TEAE,[2]; Cohort 1,4 (22%)
same,At Least One Serious and Related TEAE,[2]; Cohort 1,0
same,At Least One Severe and Related TEAE,[2]; Cohort 1,0
same,At Least One TEAE,[2]; Cohort 1,17 (94%)
same,At Least One TEAE Leading to Study Discontinuation,[2]; Cohort 1,0
same,At Least One Wound Infection REAE,[2]; Cohort 1,2 (11%)
same,Deaths,[2]; Cohort 1,0
same,TEAE Maximum Relationship to Study Drug: Not Related,[2]; Cohort 1,13 (72%)
same,TEAE Maximum Relationship to Study Drug: Related,[2]; Cohort 1,4 (22%)
same,TEAE Maximum Severity: Mild,[2]; Cohort 1,2 (11%)
same,TEAE Maximum Severity: Moderate,[2]; Cohort 1,11 (61%)
same,TEAE Maximum Severity: Severe,[2]; Cohort 1,4 (22%)
same,At Least One Cardiovascular TEAE,[2]; Cohort 2,2 (10%)
same,At Least One Neurological TEAE,[2]; Cohort 2,10 (50%)
same,At Least One Non-Opioid TEAE,[2]; Cohort 2,19 (95%)
same,At Least One Serious TEAE,[2]; Cohort 2,1 (5%)
same,At Least One Serious and Related TEAE,[2]; Cohort 2,0
same,At Least One Severe and Related TEAE,[2]; Cohort 2,1 (5%)
same,At Least One TEAE,[2]; Cohort 2,20 (100%)
same,At Least One TEAE Leading to Study Discontinuation,[2]; Cohort 2,1 (5%)
same,At Least One Wound Infection REAE,[2]; Cohort 2,1 (5%)
same,Deaths,[2]; Cohort 2,0
same,TEAE Maximum Relationship to Study Drug: Not Related,[2]; Cohort 2,10 (50%)
same,TEAE Maximum Relationship to Study Drug: Related,[2]; Cohort 2,10 (50%)
same,TEAE Maximum Severity: Mild,[2]; Cohort 2,2 (10%)
same,TEAE Maximum Severity: Moderate,[2]; Cohort 2,13 (65%)
same,TEAE Maximum Severity: Severe,[2]; Cohort 2,5 (25%)
same,Cmax,[3]; Cohort 1,251 ng/mL
same,AUC(0-t),"[3]; Cohort 1, read-out: AUC(0-72), mean",8460 ng·h/mL
same,AUC(0-t),"[3]; Cohort 1, read-out: AUC(0-last), mean",7780 ng·h/mL
same,Tmax,"[3]; Cohort 1, read-out: Tmax, median",16 h
same,Cmax,[3]; Cohort 2,371 ng/mL
same,AUC(0-t),"[3]; Cohort 2, read-out: AUC(0-72), mean",6770 ng·h/mL
same,AUC(0-t),"[3]; Cohort 2, read-out: AUC(0-last), mean",6620 ng·h/mL
same,Tmax,"[3]; Cohort 2, read-out: Tmax, median",1 h
same,"Total Morphine-equivalent Opioid Medication Use, MEDD 0-72 hours, Median (Q1, Q3)",[4]; Cohort 1 (Laparotomy),"63.0 (34.0, 152.0) mg"
same,"Pain Intensity on Movement AUC 0-24 hours, LS Mean (SE)",[4]; Cohort 1 (Laparotomy),6.3 (0.48)
same,"Pain Intensity on Movement AUC 0-48 hours, LS Mean (SE)",[4]; Cohort 1 (Laparotomy),6.0 (0.49)
same,"Pain Intensity on Movement AUC 0-72 hours, LS Mean (SE)",[4]; Cohort 1 (Laparotomy),5.8 (0.51)
same,"Pain Intensity on Movement AUC 24-48 hours, LS Mean (SE)",[4]; Cohort 1 (Laparotomy),5.7 (0.56)
same,"Pain Intensity on Movement AUC 48-72 hours, LS Mean (SE)",[4]; Cohort 1 (Laparotomy),5.3 (0.60)
same,"Repeated Measures Pain Intensity on Movement, All Timepoints 0-72 hr, LS Mean (SE)",[4]; Cohort 1 (Laparotomy),5.9 (0.35)
same,"Total Morphine-equivalent Opioid Medication Use, MEDD 0-72 hours, Median (Q1, Q3)",[4]; [8],"22.5 (12.5, 34.5) mg"
same,"Pain Intensity on Movement AUC 0-24 hours, LS Mean (SE)",[4]; [8],4.8 (0.47)
same,"Pain Intensity on Movement AUC 0-48 hours, LS Mean (SE)",[4]; [8],4.4 (0.45)
same,"Pain Intensity on Movement AUC 0-72 hours, LS Mean (SE)",[4]; [8],3.9 (0.45)
same,"Pain Intensity on Movement AUC 24-48 hours, LS Mean (SE)",[4]; [8],4.0 (0.22)
same,"Pain Intensity on Movement AUC 48-72 hours, LS Mean (SE)",[4]; [8],2.8 (0.52)
same,"Repeated Measures Pain Intensity on Movement, All Timepoints 0-72 hr, LS Mean (SE)",[4]; [8],3.6 (0.32)
same,"Pain intensity on movement 0 to 48 hours, Mean",[5],5.87
same,"All TEAEs, % of patients",[6],37.9%
same,"All TEAEs, n (patients with at least one event)",[6],11
same,"TEAE Alanine aminotransferase increased, % of patients",[6],0.0%
same,"TEAE Cardiac disorders, % of patients",[6],10.3%
same,"TEAE Gastrointestinal disorders, % of patients",[6],3.4%
same,"TEAE General disorders and administration site conditions, % of patients",[6],0.0%
same,"TEAE Headache, % of patients",[6],3.4%
same,"TEAE Injury, poisoning and procedural complications, % of patients",[6],0.0%
same,"TEAE Investigations, % of patients",[6],6.9%
same,"TEAE Musculoskeletal and connective tissue disorders, % of patients",[6],6.9%
same,"TEAE Musculoskeletal pain, % of patients",[6],6.9%
same,"TEAE Nausea, % of patients",[6],3.4%
same,"TEAE Nervous system disorders, % of patients",[6],13.8%
same,"TEAE Respiratory, thoracic and mediastinal disorders, % of patients",[6],6.9%
same,"TEAE Skin and subcutaneous tissue disorders, % of patients",[6],6.9%
same,"Fatal TEAE, number of subjects",[7]; Part 2 (N = 148 per group),0
same,"Fatal TEAE, percent of subjects",[7]; Part 2 (N = 148 per group),(0.0%)
same,"At Least One LogPad-Solicited TEAE, number of subjects","[7]; human, in vivo",132
same,"At Least One LogPad-Solicited TEAE, percent of subjects","[7]; human, in vivo",(89.2%)
same,"At Least One Serious TEAE, number of subjects","[7]; human, in vivo",3
same,"At Least One Serious TEAE, percent of subjects","[7]; human, in vivo",(2.0%)
same,"At Least One Serious and Related TEAE, number of subjects","[7]; human, in vivo",0
same,"At Least One Serious and Related TEAE, percent of subjects","[7]; human, in vivo",(0.0%)
same,"At Least One Severe and Related TEAE, number of subjects","[7]; human, in vivo",0
same,"At Least One Severe and Related TEAE, percent of subjects","[7]; human, in vivo",(0.0%)
same,"At Least One Spontaneously-reported TEAE, number of subjects","[7]; human, in vivo",138
same,"At Least One Spontaneously-reported TEAE, percent of subjects","[7]; human, in vivo",(93.2%)
same,"At Least One TEAE Leading to Study Discontinuation, number of subjects","[7]; human, in vivo",1
same,"At Least One TEAE Leading to Study Discontinuation, percent of subjects","[7]; human, in vivo",(0.7%)
same,"At Least One TEAE, number of subjects","[7]; human, in vivo",146
same,"At Least One TEAE, percent of subjects","[7]; human, in vivo",(98.6%)
same,"TEAE Maximum Relationship to Study Drug: Not Related, number of subjects","[7]; human, in vivo",42
same,"TEAE Maximum Relationship to Study Drug: Not Related, percent of subjects","[7]; human, in vivo",(28.4%)
same,"TEAE Maximum Relationship to Study Drug: Related, number of subjects","[7]; human, in vivo",104
same,"TEAE Maximum Relationship to Study Drug: Related, percent of subjects","[7]; human, in vivo",(70.3%)
same,"TEAE Maximum Severity: Mild, number of subjects","[7]; human, in vivo",92
same,"TEAE Maximum Severity: Mild, percent of subjects","[7]; human, in vivo",(62.2%)
same,"TEAE Maximum Severity: Moderate, number of subjects","[7]; human, in vivo",49
same,"TEAE Maximum Severity: Moderate, percent of subjects","[7]; human, in vivo",(33.1%)
same,"TEAE Maximum Severity: Severe, number of subjects","[7]; human, in vivo",5
same,"TEAE Maximum Severity: Severe, percent of subjects","[7]; human, in vivo",(3.4%)
same,treated subjects with treatment-emergent serious adverse events,"[7]; human, in vivo",3 subjects
